Data from patent US9096532B2, “Pyrazole inhibitors of COX-2 and sEH” (The Regents of the University of California, priority 2010, dated 2015).

Tests used:
[1] = molecular target: T1, ovine COX-1 (Ovis aries, UniProt P05979); assay: Cyclooxygenase inhibition assay (COX Fluorescent Inhibitor Screening Assay Kit), COX-1; assay type: biochemical; conditions: read-out: COX-1 (% inhibition)
T1 construct: purchased Cayman Chemical 700100
T1 sequence (P05979 25-600): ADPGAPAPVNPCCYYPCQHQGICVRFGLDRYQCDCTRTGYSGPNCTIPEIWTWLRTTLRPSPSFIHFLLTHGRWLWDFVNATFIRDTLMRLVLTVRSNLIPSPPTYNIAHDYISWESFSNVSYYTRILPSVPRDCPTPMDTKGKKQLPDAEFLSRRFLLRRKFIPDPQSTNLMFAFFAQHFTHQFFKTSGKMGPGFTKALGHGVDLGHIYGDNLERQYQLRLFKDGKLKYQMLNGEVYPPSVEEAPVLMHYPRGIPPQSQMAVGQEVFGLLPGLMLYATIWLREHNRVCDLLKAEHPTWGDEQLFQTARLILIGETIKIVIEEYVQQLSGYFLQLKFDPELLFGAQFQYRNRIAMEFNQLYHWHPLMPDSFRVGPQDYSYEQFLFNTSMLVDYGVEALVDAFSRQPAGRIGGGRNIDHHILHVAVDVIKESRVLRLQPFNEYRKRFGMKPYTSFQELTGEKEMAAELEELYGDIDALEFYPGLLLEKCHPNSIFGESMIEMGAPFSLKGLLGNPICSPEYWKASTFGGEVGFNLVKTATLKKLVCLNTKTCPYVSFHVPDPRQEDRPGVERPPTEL
Experimental: (§1) Stock solutions of test compounds are dissolved in a minimum volume of DMSO. 10 μl of various concentrations of the test compound solutions, e.g., [I]final between 0.01 and 100 μM, are added to a series of supplied reaction buffer solutions (150 μl, 100 mM Tris-HCl, pH 8.0) with either COX-1 or COX-2 (10 μl) enzyme in the presence of Heme (10 μl) and a fluorometric substrate (10 μl). The reactions are initiated by quickly adding 10 μl of arachidonic acid solution and then incubating the system for two minutes at room temperature. […] The intensity of this fluorescence is proportional to the amount of resorufin, which is proportional to the amount of PGG2 present in the well during the incubation. Percent inhibition is calculated by comparison from the 100% initial activity sample value (no inhibitor).
as §1, with “compounds were” for “compounds are”, “μM, were” for “μM, are”, “reactions were” for “reactions are”, “then incubated” for “then incubating the system”, “inhibition was” for “inhibition is”

[2] = molecular target: T2, human sEH (Homo sapiens, UniProt P34913); assay: sEH IC50 assay, fluorescent-based with CMNPC substrate; assay type: biochemical; conditions: for IC50: kinetic fluorescent assay, means ± SD of three separate experiments
T2 sequence (P34913 1-555): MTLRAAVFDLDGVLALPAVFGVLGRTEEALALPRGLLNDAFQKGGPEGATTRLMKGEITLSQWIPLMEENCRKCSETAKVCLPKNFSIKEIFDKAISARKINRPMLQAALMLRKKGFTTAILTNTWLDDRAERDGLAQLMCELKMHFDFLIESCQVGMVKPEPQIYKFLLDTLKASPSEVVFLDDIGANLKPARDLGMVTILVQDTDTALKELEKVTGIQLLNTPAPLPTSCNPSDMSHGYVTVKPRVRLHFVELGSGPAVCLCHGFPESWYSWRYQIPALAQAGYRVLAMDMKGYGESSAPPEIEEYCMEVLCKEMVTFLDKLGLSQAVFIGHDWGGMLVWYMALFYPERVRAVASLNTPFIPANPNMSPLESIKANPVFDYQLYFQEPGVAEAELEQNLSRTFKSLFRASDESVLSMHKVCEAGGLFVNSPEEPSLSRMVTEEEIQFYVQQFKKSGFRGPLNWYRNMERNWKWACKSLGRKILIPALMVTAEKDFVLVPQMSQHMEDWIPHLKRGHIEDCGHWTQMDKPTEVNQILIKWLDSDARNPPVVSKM
Experimental: sEH inhibition IC50 values for the compounds presented herein can be assayed by a recombinant affinity assay using purified sEHs, from human, mouse or rat, in a fluorescent-based assay.
For the recombinant affinity assay, purified sEHs (human, mouse and rat) were used in a fluorescent-based assay to determine IC50 values. […] These IC50 values were calculated from at least three separate runs, each in triplicate, to obtain the statistics herein, e.g., standard deviation.

[3] = molecular target: T3, human recombinant COX-2 (Homo sapiens, UniProt P35354); assay: Cyclooxygenase inhibition assay (COX Fluorescent Inhibitor Screening Assay Kit), COX-2; assay type: biochemical; conditions: compared to compound 21b
T3 construct: purchased Cayman Chemical 700100
T3 sequence (P35354 18-604): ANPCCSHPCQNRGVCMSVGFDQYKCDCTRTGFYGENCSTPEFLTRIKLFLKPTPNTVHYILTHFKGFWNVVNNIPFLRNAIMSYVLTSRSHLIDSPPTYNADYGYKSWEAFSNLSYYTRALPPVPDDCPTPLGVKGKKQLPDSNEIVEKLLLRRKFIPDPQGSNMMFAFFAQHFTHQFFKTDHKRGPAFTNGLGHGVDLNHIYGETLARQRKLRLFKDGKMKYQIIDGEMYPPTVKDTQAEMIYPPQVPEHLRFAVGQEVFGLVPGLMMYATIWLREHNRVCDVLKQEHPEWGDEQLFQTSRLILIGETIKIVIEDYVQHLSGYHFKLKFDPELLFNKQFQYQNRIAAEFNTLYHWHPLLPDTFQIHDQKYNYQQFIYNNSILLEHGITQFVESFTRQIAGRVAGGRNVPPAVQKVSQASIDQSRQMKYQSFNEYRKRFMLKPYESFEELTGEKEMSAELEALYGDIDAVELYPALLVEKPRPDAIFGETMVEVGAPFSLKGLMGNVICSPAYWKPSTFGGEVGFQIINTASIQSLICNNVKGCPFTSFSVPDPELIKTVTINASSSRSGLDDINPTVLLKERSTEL
Experimental: as §1
as §1, with “compounds were” for “compounds are”, “μM, were” for “μM, are”, “reactions were” for “reactions are”, “then incubated” for “then incubating the system”, “inhibition was” for “inhibition is”

[4] = Pharmacokinetics in mice by oral cassette dosing; assay type: in vivo; conditions: oral cassette dosing at 5 mg/kg, blood
Experimental: All the animal experiments were performed according to protocols approved by the Animal Use and Care Committee of University of California, Davis. […] Each cassette was orally administered to 4 mice at a dose of 5 mg/kg in 120-150 μl of vehicle depending on animal weight. […] The instrument was equipped with a linear ion trap and a Turbo V ion source and was operated in negative ion MRM mode. […] This was maintained for 3 min, then the gradient was returned to 30% solvent B in 2 min. The flow rate was 0.4 mL/min. The injection volume was 10 μL and the samples were kept at 4° C. in the auto sampler.

NS(=O)(=O)c1ccc(-n2nc(NC(=O)Nc3cccc(C(F)(F)F)c3)cc2-c2ccccc2)cc1 [Compound 7, 4-{5-Phenyl-3-[3-(3-trifluoromethyl-phenyl)-ureido]-pyrazol-1-yl}-benzenesulfonamide]
inhibition at 100 µM [1]: 33.9%

CS(=O)(=O)c1ccc(-n2nc(CNC(=O)NC34CC5CC(CC(C5)C3)C4)cc2-c2ccccc2)cc1 [Compound 11a, 1-Adamantan-1-yl-3-[1-(4-methanesulfonyl-phenyl)-5-phenyl-1H-pyrazol-3-ylmethyl]-urea]
inhibition at 100 µM [1]: 12.7%

CS(=O)(=O)c1ccc(-n2nc(CNC(=O)NC3CCCCCC3)cc2-c2ccccc2)cc1 [Compound 11b, 1-Cycloheptyl-3-[1-(4-methanesulfonyl-phenyl)-5-phenyl-1H-pyrazol-3-ylmethyl]-urea]
Improvement of sEH inhibition ([2]; compared to compound 11a): 10 fold
inhibition at 100 µM [1]: 3.4%

CS(=O)(=O)c1ccc(-n2nc(CNC(=O)Nc3ccc(OC(F)(F)F)cc3)cc2-c2ccccc2)cc1 [Compound 11d, 1-[1-(4-Methanesulfonyl-phenyl)-5-phenyl-1H-pyrazol-3-ylmethyl]-3-(4-trifluoromethoxy-phenyl)-urea]
inhibition at 100 µM [1]: 10.4%

CS(=O)(=O)c1ccc(-n2nc(CNC(=O)Nc3ccc(C(F)(F)F)cc3)cc2-c2ccccc2)cc1 [Compound 11e, 1-[1-(4-Methanesulfonyl-phenyl)-5-phenyl-1H-pyrazol-3-ylmethyl]-3-(4-trifluoromethyl-phenyl)-urea]
inhibition at 100 µM [1]: 10.7%

CS(=O)(=O)c1ccc(-n2nc(CNC(=O)Nc3cccc(C(F)(F)F)c3)cc2-c2ccccc2)cc1 [Compound 11f, 1-[1-(4-Methanesulfonyl-phenyl)-5-phenyl-1H-pyrazol-3-ylmethyl]-3-(3-trifluoromethyl-phenyl)-urea]
inhibition at 100 µM [1]: 7.8%

NS(=O)(=O)c1ccc(-n2nc(CNC(=O)Nc3cccc(C(F)(F)F)c3)cc2-c2ccccc2)cc1 [Compound 11g, 4-{5-Phenyl-3-[3-(3-trifluoromethyl-phenyl)-ureidomethyl]-pyrazol-1-yl}-benzenesulfonamide]
inhibition at 100 µM [1]: 16.9%

CC(C)(C)c1cc(CNC(=O)Nc2cccc(C(F)(F)F)c2)nn1-c1ccc(S(C)(=O)=O)cc1 [Compound 11h, 1-[5-tert-Butyl-1-(4-methanesulfonyl-phenyl)-1H-pyrazol-3-ylmethyl]-3-(3-trifluoromethyl-phenyl)-urea]
inhibition at 100 µM [1]: 2.4%

NS(=O)(=O)c1ccc(-n2nc(CCNC(=O)Nc3cccc(C(F)(F)F)c3)cc2-c2ccccc2)cc1 [Compound 15, 4-(5-Phenyl-3-{2-[3-(3-trifluoromethyl-phenyl)-ureido]-ethyl}-pyrazol-1-yl)-benzenesulfonamide]
Improvement of sEH inhibition ([2]; compared to compound 11g): 3 fold
inhibition at 100 µM [1]: 22%

CS(=O)(=O)c1ccc(-n2nc(CCCNC(=O)Nc3cccc(C(F)(F)F)c3)cc2-c2ccccc2)cc1 [Compound 21a, 1-{3-[1-(4-Methanesulfonyl-phenyl)-5-phenyl-1H-pyrazol-3-yl]-propyl}-3-(3-trifluoromethyl-phenyl)-urea]
inhibition at 100 µM [1]: 6.4%

Cc1ccc(-c2cc(CCCNC(=O)Nc3cccc(C(F)(F)F)c3)nn2-c2ccc(S(N)(=O)=O)cc2)cc1 [Compound 21c, 4-(5-p-Tolyl-3-{3-[3-(3-trifluoromethyl-phenyl)-ureido]-propyl}-pyrazol-1-yl)-benzenesulfonamide]
Diminished sEH inhibition ([2]; compared to compound 21b): 3 fold
inhibition at 100 µM [1]: 12.1%
Diminished COX-2 inhibition [3]: 3 fold

Cc1cccc(C)c1NC(=O)NCCCc1cc(-c2ccccc2)n(-c2ccc(S(N)(=O)=O)cc2)n1 [Compound 21d, 4-(3-{3-[3-(2,6-Dimethyl-phenyl)-ureido]-propyl}-5-phenyl-pyrazol-1-yl)-benzenesulfonamide]
IC50 [2]: 1.55 ± 0.07 µM
inhibition at 100 µM [1]: 6.2%

NS(=O)(=O)c1ccc(-n2nc(CCCNC(=O)Nc3ccccc3)cc2-c2ccccc2)cc1 [Compound 21e, 4-{5-Phenyl-3-[3-(3-phenyl-ureido)-propyl]-pyrazol-1-yl}-benzenesulfonamide]
AUC [4]: 0.125 µM·h
Cmax [4]: 100 nM
Tmax [4]: 0.5 h
t1/2 [4]: 3.1 h
inhibition at 100 µM [1]: 15.8%

NS(=O)(=O)c1ccc(-n2nc(CCCNC(=O)NC34CC5CC(CC(C5)C3)C4)cc2-c2ccccc2)cc1 [Compound 21f, 4-{3-[3-(3-Adamantan-1-yl-ureido)-propyl]-5-phenyl-pyrazol-1-yl}-benzenesulfonamide]
AUC [4]: 0.022 µM·h
Cmax [4]: 20 nM
Tmax [4]: 0.5 h
t1/2 [4]: 1.7 h
inhibition at 100 µM [1]: 6.7%

NS(=O)(=O)c1ccc(-n2nc(CCCNC(=O)NC3CCCCCC3)cc2-c2ccccc2)cc1 [Compound 21g, 4-{3-[3-(3-Cycloheptyl-ureido)-propyl]-5-phenyl-pyrazol-1-yl}-benzenesulfonamide]
AUC [4]: 0.1 µM·h
Cmax [4]: 42 nM
Tmax [4]: 0.5 h
t1/2 [4]: 3.5 h
inhibition at 100 µM [1]: 10.2%

NS(=O)(=O)c1ccc(-n2nc(CCCNC(=O)Nc3ccc(Cl)cc3)cc2-c2ccccc2)cc1 [Compound 21h, 4-(3-{3-[3-(4-Chloro-phenyl)-ureido]-propyl}-5-phenyl-pyrazol-1-yl)-benzenesulfonamide]
AUC [4]: 0.375 µM·h
Cmax [4]: 190 nM
Tmax [4]: 0.8 h
t1/2 [4]: 2.4 h
inhibition at 100 µM [1]: 15.2%

COc1ccc2c(c1)c(CC(=O)O)c(C)n2C(=O)c1ccc(Cl)cc1 [Indomethacin, reference compound]
IC50 [2]: > 10 µM

CS(=O)(=O)c1ccc(C2=C(c3ccccc3)C(=O)OC2)cc1 [Rofecoxib, rofecoxib, reference compound]
IC50 [2]: > 10 µM
inhibition at 100 µM [1]: 16.5%
